Measured values reported in ChEMBL document CHEMBL4152334, “Synthesis, molecular docking and biological evaluation of novel phthaloyl derivatives of 3-amino-3-aryl propionic acids as inhibitors of Trypanosoma cruzi trans-sialidase” (2018).

tested on: Trypanosoma cruzi; test: Trypanocidal activity against trypomastigote stage of Trypanosoma cruzi NINOA infected in NIH mouse blood assessed as parasite lysis at 10 ug/ml after 24 hrs by optical microscopic method relative to control; assay type: functional; conditions: not given

Going from `O=C(O)CC(c1ccc(F)cc1)N1C(=O)c2ccc(C(=O)O)cc2C1=O` (configuration not stated) to `O=C(O)CC(c1ccc(Br)cc1)N1C(=O)c2ccc(C(=O)O)cc2C1=O` (configuration not stated), the Activity rises from 10% to 23%.

Going from `O=C(O)CC(c1ccccc1[N+](=O)[O-])N1C(=O)c2ccc(C(=O)O)cc2C1=O` (configuration not stated) to `O=C(O)CC(c1ccc([N+](=O)[O-])cc1)N1C(=O)c2ccc(C(=O)O)cc2C1=O` (configuration not stated), the Activity falls from 48% to 23%.

Going from `O=C(O)CC(c1ccc2ccccc2c1)N1C(=O)c2ccccc2C1=O` (configuration not stated) to `O=C(O)CC(c1ccc(-c2ccccc2)cc1)N1C(=O)c2ccccc2C1=O` (configuration not stated), the Activity falls from 57% to 31%.

Compared with `O=C(O)CC(c1ccco1)N1C(=O)c2ccc(C(=O)O)cc2C1=O` (configuration not stated), `O=C(O)CC(c1ccc(O)cc1)N1C(=O)c2ccc(C(=O)O)cc2C1=O` (configuration not stated) is lower in Activity: 77% for the first, 43% for the second.

Compared with `COc1ccc(C(CC(=O)O)N2C(=O)c3ccc(C)cc3C2=O)cc1` (configuration not stated), `Cc1ccc2c(c1)C(=O)N(C(CC(=O)O)c1ccc(O)cc1)C2=O` (configuration not stated) is lower in Activity: 78% for the first, 38% for the second.

First: Cc1ccc2c(c1)C(=O)N(C(CC(=O)O)c1ccc(-c3ccccc3)cc1)C2=O (configuration not stated)
Second: Cc1ccc(C(CC(=O)O)N2C(=O)c3ccccc3C2=O)cc1 (configuration not stated)
The Activity of the first is higher: 25% for the first, 23% for the second.

First: NC(CC(=O)O)c1cccs1 (configuration not stated)
Second: NC(CC(=O)O)c1ccc(Cl)cc1 (configuration not stated)
The Activity of the first is lower: 8% for the first, 13% for the second.

Compared with `Cc1ccc2c(c1)C(=O)N(C(CC(=O)O)c1cc3c(cc1[N+](=O)[O-])OCCO3)C2=O` (configuration not stated), `O=C(O)CC(c1cc2c(cc1[N+](=O)[O-])OCCO2)N1C(=O)c2ccccc2C1=O` (configuration not stated) is higher in Activity: 47% for the first, 54% for the second.

First: CCc1ccc(C(N)CC(=O)O)cc1 (configuration not stated)
Second: CCc1ccc(C(CC(=O)O)N2C(=O)c3ccccc3C2=O)cc1 (configuration not stated)
The Activity of the first is higher: 65% for the first, 22% for the second.

Going from `O=C(O)CC(c1ccc2c(c1)OCCO2)N1C(=O)c2ccc(C(=O)O)cc2C1=O` (configuration not stated) to `O=C(O)CC(c1ccc2c(c1)OCCO2)N1C(=O)c2ccccc2C1=O` (configuration not stated), the Activity falls from 33% to 24%.

First: Cc1ccc2c(c1)C(=O)N(C(CC(=O)O)c1ccc([N+](=O)[O-])cc1)C2=O (configuration not stated)
Second: O=C(O)CC(c1ccc([N+](=O)[O-])cc1)N1C(=O)c2ccccc2C1=O (configuration not stated)
The Activity of the first is lower: 45% for the first, 62% for the second.

Going from `O=C(O)CC(c1ccccc1[N+](=O)[O-])N1C(=O)c2ccccc2C1=O` (configuration not stated) to `O=C(O)CC(c1cccs1)N1C(=O)c2ccccc2C1=O` (configuration not stated), the Activity falls from 56% to 22%.

Compared with `NC(CC(=O)O)c1ccc2c(c1)OCCO2` (configuration not stated), `NC(CC(=O)O)c1ccccc1[N+](=O)[O-]` (configuration not stated) is lower in Activity: 37% for the first, 23% for the second.

Compared with `CCc1ccc(C(CC(=O)O)N2C(=O)c3ccc(C)cc3C2=O)cc1` (configuration not stated), `CCc1ccc(C(CC(=O)O)N2C(=O)c3ccc(C(=O)O)cc3C2=O)cc1` (configuration not stated) is lower in Activity: 65% for the first, 23% for the second.

Work on `CC1CS(=O)(=O)CCN1/N=C/c1ccc([N+](=O)[O-])o1` (configuration not stated) [NIFURTIMOX] yielded an Activity of 40.74%.

tested on: Trypanosoma cruzi; test: Trypanocidal activity against trypomastigote stage of Trypanosoma cruzi NINOA infected in NIH mouse blood assessed as […] parasite lysis after 24 hrs by optical microscopic method; assay type: functional; conditions: not given

Compared with `O=C(O)CC(c1ccc2ccccc2c1)N1C(=O)c2ccccc2C1=O` (configuration not stated), `O=C(O)CC(c1ccc([N+](=O)[O-])cc1)N1C(=O)c2ccccc2C1=O` (configuration not stated) is 1.8-fold lower in LC50: 97.3 µM for the first, 53.5 µM for the second.

`O=C(O)CC(c1ccco1)N1C(=O)c2ccc(C(=O)O)cc2C1=O` (configuration not stated) and `COc1ccc(C(CC(=O)O)N2C(=O)c3ccc(C)cc3C2=O)cc1` (configuration not stated) are within 1.5-fold of each other in LC50: 77.6 µM for the first, 65.6 µM for the second.

`CCc1ccc(C(N)CC(=O)O)cc1` (configuration not stated) gave an LC50 of 113 µM.

target: T1, Trans-sialidase (Trypanosoma cruzi) (UniProt Q26964); test: Inhibition of Trypanosoma cruzi trans-sialidase at 1 mM assessed as reduction of 3'-sialyl-N-acetyllactosamine formation at 1 mM using N-acetyllactosamine as substrate and 3-sialyl-lactose as donor incubated for 15 mins by HPAEC-PAD relative to control; conditions: not given
T1 sequence (whole entry): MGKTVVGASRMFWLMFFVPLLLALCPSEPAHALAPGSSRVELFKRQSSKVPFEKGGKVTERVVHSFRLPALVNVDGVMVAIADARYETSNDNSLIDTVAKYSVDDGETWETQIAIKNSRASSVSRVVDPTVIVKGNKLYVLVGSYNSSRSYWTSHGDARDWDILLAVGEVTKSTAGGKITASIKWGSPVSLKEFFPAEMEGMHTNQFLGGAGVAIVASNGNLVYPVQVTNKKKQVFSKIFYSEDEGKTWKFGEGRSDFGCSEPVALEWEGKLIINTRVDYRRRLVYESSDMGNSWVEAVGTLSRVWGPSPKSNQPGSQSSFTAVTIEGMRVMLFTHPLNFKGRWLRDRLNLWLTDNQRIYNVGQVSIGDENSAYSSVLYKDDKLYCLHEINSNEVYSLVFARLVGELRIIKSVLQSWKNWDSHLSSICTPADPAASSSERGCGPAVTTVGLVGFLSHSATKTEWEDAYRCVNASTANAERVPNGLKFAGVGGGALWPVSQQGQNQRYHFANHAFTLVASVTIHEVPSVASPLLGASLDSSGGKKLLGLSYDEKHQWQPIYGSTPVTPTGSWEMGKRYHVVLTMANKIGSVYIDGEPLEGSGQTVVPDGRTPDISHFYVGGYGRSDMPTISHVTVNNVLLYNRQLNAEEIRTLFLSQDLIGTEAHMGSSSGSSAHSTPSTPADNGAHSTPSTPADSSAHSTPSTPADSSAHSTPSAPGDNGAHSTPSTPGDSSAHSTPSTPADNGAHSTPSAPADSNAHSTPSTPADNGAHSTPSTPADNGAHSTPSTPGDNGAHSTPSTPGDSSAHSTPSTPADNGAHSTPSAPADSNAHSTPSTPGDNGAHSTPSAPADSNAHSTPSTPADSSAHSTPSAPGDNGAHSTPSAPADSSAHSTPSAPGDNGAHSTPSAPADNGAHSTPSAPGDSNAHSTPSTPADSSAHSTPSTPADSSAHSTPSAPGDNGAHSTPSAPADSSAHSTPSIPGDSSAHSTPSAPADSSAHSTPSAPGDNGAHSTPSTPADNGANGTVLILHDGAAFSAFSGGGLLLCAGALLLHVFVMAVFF

First: O=C(O)CC(c1ccc2ccccc2c1)N1C(=O)c2ccccc2C1=O (configuration not stated)
Second: Cc1ccc2c(c1)C(=O)N(C(CC(=O)O)c1ccc(O)cc1)C2=O (configuration not stated)
The inhibition of the first is lower: 65.8% for the first, 82.5% for the second.

Compared with `O=C(O)CC(c1ccco1)N1C(=O)c2ccc(C(=O)O)cc2C1=O` (configuration not stated), `O=C(O)CC(c1ccc(O)cc1)N1C(=O)c2ccc(C(=O)O)cc2C1=O` (configuration not stated) is higher in inhibition: 19.2% for the first, 53% for the second.

tested on: Trypanosoma cruzi; test: Trypanocidal activity against trypomastigote stage of Trypanosoma cruzi INC-5 infected in NIH mouse blood assessed as parasite lysis after 24 hrs by optical microscopic method; assay type: functional; conditions: INC-5, Blood

`O=C(O)CC(c1ccc2ccccc2c1)N1C(=O)c2ccccc2C1=O` (configuration not stated) and `O=C(O)CC(c1ccc([N+](=O)[O-])cc1)N1C(=O)c2ccccc2C1=O` (configuration not stated) are within 1.5-fold of each other in LC50: 117 µM for the first, 119 µM for the second.

Compared with `O=C(O)CC(c1ccco1)N1C(=O)c2ccc(C(=O)O)cc2C1=O` (configuration not stated), `COc1ccc(C(CC(=O)O)N2C(=O)c3ccc(C)cc3C2=O)cc1` (configuration not stated) is 1.7-fold lower in LC50: 102 µM for the first, 59.5 µM for the second.

With `CCc1ccc(C(N)CC(=O)O)cc1` (configuration not stated) the LC50 was 264 µM.

tested on: Trypanosoma cruzi; test: Trypanocidal activity against trypomastigote stage of Trypanosoma cruzi INC-5 infected in NIH mouse blood assessed as parasite lysis at 10 ug/ml after 24 hrs by optical microscopic method relative to control; assay type: functional; conditions: not given

Compared with `O=C(O)CC(c1ccc(F)cc1)N1C(=O)c2ccc(C(=O)O)cc2C1=O` (configuration not stated), `O=C(O)CC(c1ccc(Br)cc1)N1C(=O)c2ccc(C(=O)O)cc2C1=O` (configuration not stated) is lower in Activity: 67% for the first, 56% for the second.

First: O=C(O)CC(c1ccccc1[N+](=O)[O-])N1C(=O)c2ccc(C(=O)O)cc2C1=O (configuration not stated)
Second: O=C(O)CC(c1ccc([N+](=O)[O-])cc1)N1C(=O)c2ccc(C(=O)O)cc2C1=O (configuration not stated)
The Activity of the first is higher: 68% for the first, 63% for the second.

First: O=C(O)CC(c1ccc2ccccc2c1)N1C(=O)c2ccccc2C1=O (configuration not stated)
Second: O=C(O)CC(c1ccc(-c2ccccc2)cc1)N1C(=O)c2ccccc2C1=O (configuration not stated)
The Activity of the first is higher: 62% for the first, 22% for the second.

First: O=C(O)CC(c1ccco1)N1C(=O)c2ccc(C(=O)O)cc2C1=O (configuration not stated)
Second: O=C(O)CC(c1ccc(O)cc1)N1C(=O)c2ccc(C(=O)O)cc2C1=O (configuration not stated)
The Activity of the first is lower: 55% for the first, 71% for the second.

Going from `COc1ccc(C(CC(=O)O)N2C(=O)c3ccc(C)cc3C2=O)cc1` (configuration not stated) to `Cc1ccc2c(c1)C(=O)N(C(CC(=O)O)c1ccc(O)cc1)C2=O` (configuration not stated), the Activity falls from 57% to 15%.

First: Cc1ccc2c(c1)C(=O)N(C(CC(=O)O)c1ccc(-c3ccccc3)cc1)C2=O (configuration not stated)
Second: Cc1ccc(C(CC(=O)O)N2C(=O)c3ccccc3C2=O)cc1 (configuration not stated)
The Activity of the first is higher: 25% for the first, 22% for the second.

Going from `NC(CC(=O)O)c1cccs1` (configuration not stated) to `NC(CC(=O)O)c1ccc(Cl)cc1` (configuration not stated), the Activity rises from 32% to 73%.

First: Cc1ccc2c(c1)C(=O)N(C(CC(=O)O)c1cc3c(cc1[N+](=O)[O-])OCCO3)C2=O (configuration not stated)
Second: O=C(O)CC(c1cc2c(cc1[N+](=O)[O-])OCCO2)N1C(=O)c2ccccc2C1=O (configuration not stated)
The Activity of the first is higher: 63% for the first, 13% for the second.

Compared with `CCc1ccc(C(N)CC(=O)O)cc1` (configuration not stated), `CCc1ccc(C(CC(=O)O)N2C(=O)c3ccccc3C2=O)cc1` (configuration not stated) is lower in Activity: 50% for the first, 8% for the second.

Going from `O=C(O)CC(c1ccc2c(c1)OCCO2)N1C(=O)c2ccc(C(=O)O)cc2C1=O` (configuration not stated) to `O=C(O)CC(c1ccc2c(c1)OCCO2)N1C(=O)c2ccccc2C1=O` (configuration not stated), the Activity falls from 47% to 41%.

Compared with `Cc1ccc2c(c1)C(=O)N(C(CC(=O)O)c1ccc([N+](=O)[O-])cc1)C2=O` (configuration not stated), `O=C(O)CC(c1ccc([N+](=O)[O-])cc1)N1C(=O)c2ccccc2C1=O` (configuration not stated) is higher in Activity: 25% for the first, 80% for the second.

Compared with `O=C(O)CC(c1ccccc1[N+](=O)[O-])N1C(=O)c2ccccc2C1=O` (configuration not stated), `O=C(O)CC(c1cccs1)N1C(=O)c2ccccc2C1=O` (configuration not stated) is lower in Activity: 68% for the first, 25% for the second.

Compared with `NC(CC(=O)O)c1ccc2c(c1)OCCO2` (configuration not stated), `NC(CC(=O)O)c1ccccc1[N+](=O)[O-]` (configuration not stated) is higher in Activity: 52% for the first, 63% for the second.

First: CCc1ccc(C(CC(=O)O)N2C(=O)c3ccc(C)cc3C2=O)cc1 (configuration not stated)
Second: CCc1ccc(C(CC(=O)O)N2C(=O)c3ccc(C(=O)O)cc3C2=O)cc1 (configuration not stated)
The Activity of the first is lower: 59% for the first, 61% for the second.

With `CC1CS(=O)(=O)CCN1/N=C/c1ccc([N+](=O)[O-])o1` (configuration not stated) [NIFURTIMOX] the Activity was 50%.
